# Laboratory results from publication PMC7840908 (Communications Biology, 2021).
# Values joined by “and” are separate entries in the source; they are usually repeats but may differ in a detail not shown here. Equal values may be shown once.
# Experiments:
# Format in all cases: binding
# [1] = target: T1, MERS-CoV macro domain (Middle East respiratory syndrome-related coronavirus, UniProt K9N638)
# [2] = target: T1, MERS-CoV macro domain; remark: listed apart in the source
# [3] = target: T1, MERS-CoV macro domain; remark: listed apart in the source
# [4] = target: T1, MERS-CoV macro domain; remark: listed apart in the source
# T1 sequence (K9N638 1110-1276 limits assumed): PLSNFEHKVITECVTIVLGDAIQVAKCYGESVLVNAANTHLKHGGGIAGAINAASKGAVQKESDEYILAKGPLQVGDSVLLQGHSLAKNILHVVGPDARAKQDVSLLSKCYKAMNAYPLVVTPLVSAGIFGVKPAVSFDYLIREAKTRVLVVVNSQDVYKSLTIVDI
structure (smiles),measurement,setting,value
"Nc1ncnc2c1ncn2[C@@H]1O[C@H](COP(=O)(O)OP(=O)(O)OP(=O)(O)O)[C@@H](O)[C@H]1O [ATP, adenosine triphosphate]","Melting temperature (Tm) of the MERS-CoV macro domain in complex, DSF",[1],43.0 °C
same,"Melting temperature (Tm) of the MERS-CoV macro domain in complex, CD",[2],44.4 °C
same,n (stoichiometry of binding),[3],1.28 ± 0.23
same,ΔH,[3],-0.103 ± 0.0621 kcal/mol
same,−TΔS,[3],-4.725 ± 0.115 kcal/mol
same,"NMR CSP, residue 4",[4],0.02128 and 0.03079
same,"NMR CSP, residue 8",[4],0.08407 and 0.1389
same,"NMR CSP, residue 11",[4],0.01204 and 0.01003
same,"NMR CSP, residue 12",[4],0.02593 and 0.01302
same,"NMR CSP, residue 13",[4],0.02822 and 0.05324
same,"NMR CSP, residue 15",[4],0.05255 and 0.08443
same,"NMR CSP, residue 16",[4],0.08559 and 0.1065
same,"NMR CSP, residue 19",[4],0.2213 and 0.3991
same,"NMR CSP, residue 20",[4],0.5582 and 0.5971
same,"NMR CSP, residue 24",[4],0.02113 and 0.02272
same,"NMR CSP, residue 27",[4],0.04023 and 0.04654
same,"NMR CSP, residue 31",[4],0.01765 and 0.03281
same,"NMR CSP, residue 32",[4],0.03557 and 0.06867
same,"NMR CSP, residue 33",[4],0.003317 and 0.005514
same,"NMR CSP, residue 35",[4],0.08722 and 0.0586
same,"NMR CSP, residue 41",[4],0.07865 and 0.1421
same,"NMR CSP, residue 42",[4],0.02022 and 0.03875
same,"NMR CSP, residue 44",[4],0.117 and 0.1567
same,"NMR CSP, residue 46",[4],0.2082 and 0.117
same,"NMR CSP, residue 49",[4],0.1963 and 0.3148
same,"NMR CSP, residue 52",[4],0.1171 and 0.2037
same,"NMR CSP, residue 53",[4],0.06017 and 0.08476
same,"NMR CSP, residue 54",[4],0.04378 and 0.08204
same,"NMR CSP, residue 55",[4],0.03609 and 0.04139
same,"NMR CSP, residue 56",[4],0.1144
same,"NMR CSP, residue 59",[4],0.1073 and 0.0995
same,"NMR CSP, residue 64",[4],0.02081 and 0.02918
same,"NMR CSP, residue 67",[4],0.009187 and 0.006075
same,"NMR CSP, residue 68",[4],0.007457 and 0.01342
same,"NMR CSP, residue 69",[4],0.006641 and 0.01241
same,"NMR CSP, residue 70",[4],0.007029 and 0.01308
same,"NMR CSP, residue 74",[4],0.01357 and 0.01451
same,"NMR CSP, residue 76",[4],0.1087 and 0.1584
same,"NMR CSP, residue 79",[4],0.06062 and 0.09243
same,"NMR CSP, residue 80",[4],0.02546 and 0.0359
same,"NMR CSP, residue 82",[4],0.03386 and 0.028
same,"NMR CSP, residue 88",[4],0.01281 and 0.02472
same,"NMR CSP, residue 91",[4],0.02979 and 0.05588
same,"NMR CSP, residue 92",[4],0.05948 and 0.09574
same,"NMR CSP, residue 98",[4],0.08735 and 0.113
same,"NMR CSP, residue 99",[4],0.04875 and 0.06519
same,"NMR CSP, residue 101",[4],0.01539 and 0.022
same,"NMR CSP, residue 102",[4],0.003066
same,"NMR CSP, residue 104",[4],0.03263 and 0.04354
same,"NMR CSP, residue 105",[4],0.0458 and 0.08781
same,"NMR CSP, residue 108",[4],0.03048 and 0.01721
same,"NMR CSP, residue 109",[4],0.0202 and 0.03155
same,"NMR CSP, residue 111",[4],0.0136 and 0.02579
same,"NMR CSP, residue 113",[4],0.02518 and 0.03785
same,"NMR CSP, residue 117",[4],0.02758 and 0.03325
same,"NMR CSP, residue 119",[4],0.05435 and 0.04262
same,"NMR CSP, residue 122",[4],0.04092 and 0.06158
same,"NMR CSP, residue 125",[4],0.4401 and 0.7457
same,"NMR CSP, residue 126",[4],0.163 and 0.2535
same,"NMR CSP, residue 131",[4],0.1039 and 0.07453
same,"NMR CSP, residue 132",[4],0.1244 and 0.1155
same,"NMR CSP, residue 135",[4],0.05654 and 0.08994
same,"NMR CSP, residue 136",[4],0.05575 and 0.07379
same,"NMR CSP, residue 138",[4],0.04766 and 0.08654
same,"NMR CSP, residue 139",[4],0.05001 and 0.03334
same,"NMR CSP, residue 140",[4],0.07046 and 0.09693
same,"NMR CSP, residue 144",[4],0.02987 and 0.05222
same,"NMR CSP, residue 148",[4],0.04492 and 0.05905
same,"NMR CSP, residue 149",[4],0.04139 and 0.04999
same,"NMR CSP, residue 151",[4],0.03194 and 0.04624
same,"NMR CSP, residue 152",[4],0.2468
same,"NMR CSP, residue 153",[4],0.1157 and 0.09952
same,"NMR CSP, residue 155",[4],0.2226 and 0.3418
same,"NMR CSP, residue 156",[4],0.03888
same,"NMR CSP, residue 158",[4],0.03042 and 0.04983
same,"NMR CSP, residue 159",[4],0.008826 and 0.007483
same,"NMR CSP, residue 161",[4],0.02817 and 0.01678
same,"NMR CSP, residue 164",[4],0.03315 and 0.0552
